ChEMBL document CHEMBL1149428, “Design, synthesis, and biological activity of novel polycyclic aza-amide FKBP12 ligands” (J Med Chem, 2006)

Target: Peptidyl-prolyl cis-trans isomerase FKBP1A (Homo sapiens, UniProt P62942)
Assay: Inhibition of FKBP12 rotamase activity

Sequence of Peptidyl-prolyl cis-trans isomerase FKBP1A (P62942 whole entry): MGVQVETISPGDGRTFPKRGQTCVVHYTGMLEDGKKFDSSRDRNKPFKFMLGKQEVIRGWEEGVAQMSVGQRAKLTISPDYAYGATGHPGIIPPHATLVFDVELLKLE

SMILES | Ki [nM]
COc1ccc2c(c1)CCN1C(=O)C3CCCC(C21)N3S(=O)(=O)Nc1cc(OC)c(OC)c(OC)c1 (centres undefined) | 640
COc1cc2c(c(OC)c1)C1C3CCCC(C(=O)N1CC2)N3C(=O)C(=O)c1ccc(OC)c(OC)c1 (centres undefined) | 60
COc1cc2c(c(OC)c1)C1C3CCCC(C(=O)N1CC2)N3C(=O)N(c1ccc([N+](=O)[O-])cc1)c1ccc([N+](=O)[O-])cc1 (centres undefined) | 772
COc1cc2c(c(OC)c1)C1C3CCCC(C(=O)N1CC2)N3S(=O)(=O)c1ccc(C)cc1 (centres undefined) | 84
COc1cc2c(c(OC)c1)C1C3CCCC(C(=O)N1CC2)N3C(=O)C(=O)c1cc(C(C)(C)C)c(O)c(C(C)(C)C)c1 (centres undefined) | 20800
COc1cc(OC)cc(C(=O)C(=O)N2C3CCCC2C2c4c(cc(OC)cc4OC)CCN2C3=O)c1 (centres undefined) | 34
COc1cc2c(c(OC)c1)C1C3CCCC(C(=O)N1CC2)N3C(=O)C(=O)c1ccccc1Cl (centres undefined) | 583
COc1cc2c(c(OC)c1)C1C3CCCC(C(=O)N1CC2)N3C(=O)N(c1ccc(F)cc1F)c1ccc(F)cc1F (centres undefined) | 7000
COc1cc2c(c(OC)c1)C1C3CCCC(C(=O)N1CC2)N3C(=O)N(c1ccccc1)c1ccccc1 (centres undefined) | 2700
COc1cc2c(c(OC)c1)C1C3CCCC(C(=O)N1CC2)N3C(=O)C(=O)c1ccco1 (centres undefined) | 279
COc1ccc2c(c1)CCN1C(=O)C3CCCC(C21)N3S(=O)(=O)Nc1ccc(Cl)nc1 (centres undefined) | 360
COc1cc(C(=O)C(=O)N2C3CCCC2C2c4cc(C)ccc4CCN2C3=O)cc(OC)c1OC (centres undefined) | 85
COc1cc2c(c(OC)c1)C1C3CCCC(C(=O)N1CC2)N3S(=O)(=O)c1cccc(Br)c1 (centres undefined) | 54
COc1cc(C(=O)C(=O)N2C3CCCC2C2c4ccccc4CCN2C3=O)cc(OC)c1OC (centres undefined) | 217
COc1cc2c(c(OC)c1)C1C3CCCC(C(=O)N1CC2)N3C(=O)C(=O)c1cccc(Cl)c1 (centres undefined) | 46
COc1cc2c(c(OC)c1)C1C3CCCC(C(=O)N1CC2)N3C(=O)C(=O)c1ccccc1O (centres undefined) | 238
COc1cc2c(c(OC)c1)C1C3CCCC(C(=O)N1CC2)N3C(=O)C(=O)c1ccc(F)cc1 (centres undefined) | 110
COc1cc2c(c(OC)c1)C1C3CCCC(C(=O)N1CC2)N3C(=O)C(O)c1ccc(Cl)cc1 (centres undefined) | 208
COc1cccc2c1CCN1C(=O)C3CCCC(C21)N3C(=O)C(=O)c1cc(OC)c(OC)c(OC)c1 (centres undefined) | 105
COc1cc2c(c(OC)c1)C1C3CCCC(C(=O)N1CC2)N3S(=O)(=O)c1ccc(Br)cc1 (centres undefined) | 92

SMILES | Ki [nM]
COc1ccc2c(c1)CCN1C(=O)C3CCCC(C21)N3S(=O)(=O)Nc1cc(F)c(F)cc1F (centres undefined) | 590
COc1cc2c(c(OC)c1)C1C3CCCC(C(=O)N1CC2)N3C(=O)C(=O)c1cccs1 (centres undefined) | 107
COc1ccc2c(c1)CCN1C(=O)C3CCCC(C21)N3S(=O)(=O)Nc1ccc(F)nc1 (centres undefined) | 183
COc1ccc2c(c1)CCN1C(=O)C3CCCC(C21)N3S(=O)(=O)Nc1ccc(N2CCOCC2)nc1 (centres undefined) | 591
CCN(CC)c1ccc(C(=O)C(=O)N2C3CCCC2C2c4c(cc(OC)cc4OC)CCN2C3=O)cc1 (centres undefined) | 1000
COc1cc2c(c(OC)c1)C1C3CCCC(C(=O)N1CC2)N3C(=O)C(=O)c1cc(Cl)ccc1Cl (centres undefined) | 153
COc1ccc2c(c1)CCN1C(=O)C3CCCC(C21)N3S(=O)(=O)Nc1ccc(OC)nc1 (centres undefined) | 210
COc1cc2c(c(OC)c1)C1C3CCCC(C(=O)N1CC2)N3C(=O)C(=O)c1cc(OC)c(OC)c(OC)c1 (centres undefined) | 69
COc1cc2c(c(OC)c1)C1C3CCCC(C(=O)N1CC2)N3C(=O)C(=O)c1ccc(Cl)cc1Cl (centres undefined) | 586
COc1cc2c(c(OC)c1)C1C3CCCC(C(=O)N1CC2)N3S(=O)(=O)c1ccc(-c2ccc(Cl)c(Cl)c2)cc1 (centres undefined) | 156
COc1cc2c(c(OC)c1)C1C3CCCC(C(=O)N1CC2)N3C(=O)C(=O)c1cccnc1 (centres undefined) | 110
COc1ccc2c(c1)CCN1C(=O)C3CCCC(C21)N3S(=O)(=O)Nc1ccc(F)c(F)c1 (centres undefined) | 150
COc1cc2c(c(OC)c1)C1C3CCCC(C(=O)N1CC2)N3S(=O)(=O)c1ccc(C#N)cc1 (centres undefined) | 82
COc1cc2c(c(OC)c1)C1C3CCCC(C(=O)N1CC2)N3C(=O)C(=O)c1ccccc1 (centres undefined) | 100
COc1cc2c(c(OC)c1)C1C3CCCC(C(=O)N1CC2)N3S(=O)(=O)c1ccc(Nc2cc(OC)c(OC)c(OC)c2)cc1 (centres undefined) | 288
COc1cc2c(c(OC)c1)C1C3CCCC(C(=O)N1CC2)N3S(=O)(=O)c1cccc(C)c1 (centres undefined) | 104
COc1ccc2c(c1)CCN1C(=O)C3CCCC(C21)N3S(=O)(=O)N1CCCCC1 (centres undefined) | 360
COc1ccc(C(=O)C(=O)N2C3CCCC2C2c4c(cc(OC)cc4OC)CCN2C3=O)cc1 (centres undefined) | 131
COc1cc2c(c(OC)c1)C1C3CCCC(CN1CC2)N3C(=O)C(=O)c1cc(OC)c(OC)c(OC)c1 (centres undefined) | 31700
COc1cc(C(=O)C(=O)N2C3CCCC2C2c4cc(Cl)ccc4CCN2C3=O)cc(OC)c1OC (centres undefined) | 126

SMILES | Ki [nM]
COc1cc2c(c(OC)c1)C1C3CCCC(C(=O)N1CC2)N3C(=O)C(=O)c1ccc(Br)cc1 (centres undefined) | 71
CCc1ccc(C(=O)C(=O)N2C3CCCC2C2c4c(cc(OC)cc4OC)CCN2C3=O)cc1 (centres undefined) | 123
COc1cc2c(c(OC)c1)C1C3CCCC(C(=O)N1CC2)N3C(=O)N(c1ccccc1OC)c1ccccc1OC (centres undefined) | 357
COc1cc2c(c(OC)c1)C1C3CCCC(C(=O)N1CC2)N3C(=O)C(=O)c1ccc(Cl)cc1 (centres undefined) | 72
COc1cc2c(c(OC)c1)C1C3CCCC(C(=O)N1CC2)N3C(=O)C(=O)c1cccc(Cl)c1Cl (centres undefined) | 282
COc1cc(C(=O)C(=O)N2C3CCCC2C2c4c(F)cccc4CCN2C3=O)cc(OC)c1OC (centres undefined) | 201
COc1ccc2c(c1)CCN1C(=O)C3CCCC(C21)N3C(=O)C(=O)c1cc(OC)c(OC)c(OC)c1 (centres undefined) | 143
COc1cc2c(c(OC)c1)C1C3CCCC(C(=O)N1CC2)N3S(=O)(=O)c1ccccc1 (centres undefined) | 244
COc1cc2c(c(OC)c1)C1C3CCCC(C(=O)N1CC2)N3C(=O)Cc1ccc(Cl)cc1 (centres undefined) | 3100
COc1cc2c(c(OC)c1)C1C3CCCC(C(=O)N1CC2)N3C(=O)N(c1ccccc1C)c1ccccc1C (centres undefined) | 330
COc1cc(C(=O)C(=O)N2C3CCCC2C2c4cc(F)ccc4CCN2C3=O)cc(OC)c1OC (centres undefined) | 225
COc1cc(C(=O)C(=O)N2C3CCCC2C2c4cccc(Cl)c4CCN2C3=O)cc(OC)c1OC (centres undefined) | 152
COc1cc2c(c(OC)c1)C1C3CCCC(C(=O)N1CC2)N3C(=O)C(=O)c1cc2ccccc2[nH]1 (centres undefined) | 2300
COc1ccc2c(c1)CCN1C(=O)C3CCCC(C21)N3S(=O)(=O)Nc1cc(F)c(F)c(F)c1 (centres undefined) | 236
COc1cc(C(=O)C(=O)N2C3CCCC2C2c4ccc(Cl)cc4CCN2C3=O)cc(OC)c1OC (centres undefined) | 171
CCc1ccc(S(=O)(=O)N2C3CCCC2C2c4c(cc(OC)cc4OC)CCN2C3=O)cc1 (centres undefined) | 266
COc1cc2c(c(OC)c1)C1C3CCCC(C(=O)N1CC2)N3C(=O)C(=O)c1ccc(Cl)c(Cl)c1 (centres undefined) | 34
COc1ccc2c(c1)CCN1C(=O)C3CCCC(C21)N3S(=O)(=O)N1C[C@@H](C)O[C@@H](C)C1 (some centres undefined) | 123
COc1cc2c(c(OC)c1)C1C3CCCC(C(=O)N1CC2)N3C(=O)C(F)(F)c1cc(OC)c(OC)c(OC)c1 (centres undefined) | 91
